Data as given in PubChem BioAssay (NCI).
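Where inhibition never reached the appropriate level, the endpoint shown equals the highest concentration tested. Otherwise, values were interpolated linearly from a five-concentration, 48-hour dose response in 96-well plates. TGI denotes the concentration required for complete inhibition of growth.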

Legend:
Experiment in all cases: DTP human tumour cell line panel, 48 h
OVCAR-5 ovarian = tested on: OVCAR-5 ovarian
SK-MEL-5 melanoma = tested on: SK-MEL-5 melanoma
NCI-H460 lung = tested on: NCI-H460 lung
COLO 205 colon = tested on: COLO 205 colon
HCT-116 colon = tested on: HCT-116 colon
NCI-H226 lung = tested on: NCI-H226 lung
CAKI-1 renal = tested on: CAKI-1 renal
SN12C renal = tested on: SN12C renal
SK-MEL-28 melanoma = tested on: SK-MEL-28 melanoma
HL-60(TB) leukemia = tested on: HL-60(TB) leukemia
HOP-62 NSCLC = tested on: HOP-62 NSCLC
K-562 leukemia = tested on: K-562 leukemia
LOX IMVI melanoma = tested on: LOX IMVI melanoma
SNB-19 CNS = tested on: SNB-19 CNS
HCC-2998 colon = tested on: HCC-2998 colon

Compound | TGI (OVCAR-5 ovarian) [µM] | TGI (SK-MEL-5 melanoma) [µM] | TGI (NCI-H460 lung) [µM] | TGI (COLO 205 colon) [µM] | TGI (HCT-116 colon) [µM] | TGI (NCI-H226 lung) [µM] | TGI (CAKI-1 renal) [µM] | TGI (SN12C renal) [µM] | TGI (SK-MEL-28 melanoma) [µM] | TGI (HL-60(TB) leukemia) [µM] | TGI (HOP-62 NSCLC) [µM] | TGI (K-562 leukemia) [µM] | TGI (LOX IMVI melanoma) [µM] | TGI (SNB-19 CNS) [µM] | TGI (HCC-2998 colon) [µM]
Cn1ncnc1CCc1ccccc1 | > 100 | > 100 | > 100 | > 100 | > 100 | > 100 | > 100 | > 100 | > 100 | > 100 | > 100 | > 100 | > 100 | – | –
CC(C)C(/C=C/c1ccc(Br)cc1)=N\NC(N)=O | > 100 | > 100 | > 100 | > 100 | > 100 | > 100 | > 100 | > 100 | > 100 | > 100 | > 100 | > 100 | > 100 | > 100 | 25.7
O=c1cc(-c2ccccc2)oc2cc(OCCSCCCCCCCCCCSCCOc3ccc4c(=O)cc(-c5ccccc5)oc4c3)ccc12 | – | > 100 | – | > 100 | > 100 | – | > 100 | > 100 | > 100 | > 100 | > 100 | > 100 | > 100 | > 100 | > 100
CC(=O)NNc1nc(C)c(C(/C=C/c2ccc(Cl)cc2)=N/NC(=O)C[N+](C)(C)C)s1 | > 100 | > 100 | > 100 | > 100 | > 100 | > 100 | > 100 | – | > 100 | > 100 | – | > 100 | > 100 | > 100 | > 100
C=CCN(C)CN(C)c1nc(N(C)C)nc(N(C)C)n1 | > 100 | > 100 | > 100 | > 100 | > 100 | – | > 100 | > 100 | > 100 | 48.7 | > 100 | > 100 | > 100 | > 100 | > 100
COc1cc2c(cc1OC)C(=O)C(C1=C(SC(=N)N)C(=O)c3cc(OC)c(OC)cc31)C2 (stereo unspecified) | > 100 | > 100 | > 100 | > 100 | > 100 | > 100 | > 100 | > 100 | > 100 | – | > 100 | > 100 | > 100 | > 100 | > 100
CSc1nc2[nH]c(=O)c(C)nc2c(=O)[nH]1 | > 100 | > 100 | > 100 | > 100 | > 100 | – | > 100 | > 100 | > 100 | > 100 | > 100 | > 100 | > 100 | > 100 | > 100
CC(=O)Nc1ccc(C(=O)NN2C(=O)C(Cl)C2c2ccccc2O)cc1 (stereo unspecified) | > 100 | > 100 | > 100 | > 100 | > 100 | > 100 | > 100 | > 100 | > 100 | > 100 | 41.6 | > 100 | 48.9 | > 100 | –
Cn1c2cc(O)cc(O)c2c(=O)c2c([N+](=O)[O-])cccc21 | > 100 | > 100 | > 100 | > 100 | > 100 | > 100 | > 100 | > 100 | > 100 | > 100 | > 100 | > 100 | > 100 | > 100 | > 100
CCOC(=O)c1ccc(-n2c(SCC)nc3sc(C)c(C)c3c2=O)cc1 | > 100 | > 100 | > 100 | > 100 | > 100 | > 100 | > 100 | > 100 | > 100 | > 100 | > 100 | > 100 | > 100 | > 100 | > 100
O=c1cc(-c2ccc(Cl)cc2)oc2cc(OCCCOc3ccc4c(=O)cc(-c5ccc(Cl)cc5)oc4c3)ccc12 | > 100 | > 100 | > 100 | > 100 | > 100 | > 100 | > 100 | > 100 | > 100 | > 100 | > 100 | > 100 | > 100 | > 100 | > 100
COc1cc(/C=C2/C(=O)N(C(=O)c3ccc(Cl)cc3)N=C2C)cc(OC)c1OC | > 100 | > 100 | > 100 | > 100 | > 100 | – | > 100 | > 100 | > 100 | > 100 | – | > 100 | > 100 | > 100 | > 100
COC(=O)[C@@]12OC[C@]34C([C@@H](O)C1O)[C@@]1(C)CC(=O)C(OC(=O)/C=C(/c5ccccc5)C(F)(F)F)=C(C)C1C[C@H]3OC(=O)[C@H](O)[C@H]42 (stereo partly specified) | > 50 | 31.4 | 23 | 30.2 | > 50 | 29.5 | > 50 | > 50 | 27 | 2.97 | 46.1 | > 50 | – | 23.2 | 22.3
